The text below walks through data of patent US9556113B2, “Combination uses of dichloroacetate and oxamate, and their prodrugs, for cancer treatment” (The South Dakota Board of Regents, priority 2014, dated 2017).

The nature of data set [1]: In vivo release of DCA and oxamate from prodrugs, blood LC/MS/MS. Details: species or system female C57BL/6 mice. Conditions: i.p., 7.6 mg/mouse. The procedure: FIG. 16 provides LC/MS chromatograms derived from blood samples of mice dosed with prodrug 1 (AT-N4-001) (A). Mice were dosed with prodrug 1 (7.6 mg/mouse) by i.p. Blood samples were collected at 5 min and 25 min for mice dosed with prodrug 1 through retro-orbital bleeding with mice under general anesthesia. After protein precipitation by acetonitrile, samples were analyzed by LC/MS/MS. For samples derived from mice dosed with prodrug 1, the electrospray ion source was operated in the negative ionization mode for four minutes to detect DCA and oxamate before switched to the positive ionization mode to detect prodrug 1. Selected reaction monitoring (SRM) was performed to monitor the mass transition of 386→297 (1), 127→83 (DCA) and selected ion monitoring (SIM) was performed to monitor oxamate at the m/z of 88.0.
FIG. 17 provides LC/MS chromatograms derived from blood samples of mice dosed with prodrug 2 (AT-N4-002) (B). Mice were dosed with prodrug 2 (7.6 mg/mouse) by i.p. Blood samples were collected at 5 min and 30 min for a mouse dosed with prodrug 2 through retro-orbital bleeding with mice under general anesthesia. After protein precipitation by acetonitrile, samples were analyzed by LC/MS/MS. For samples derived from mice dosed with prodrug 2, all the parameters were the same as set for prodrug 1 except the electrospray ion source was operated in the negative ionization mode for all the analytes. Prodrug 2 was detected by monitoring the mass transition of 384→126.
In vivo release of the prodrugs was investigated with female C57BL/6 mice. Mice were housed four in a cage and received food and water ad libitum. All mice were used at approximately 7-10 weeks of age and given at least one week break after arrival. All experimental protocols were approved by the Institutional Animal Care and Use Committee at South Dakota State University. A prodrug (1 or 2), suspended in 3% (v/v) Tween 80 in saline (30.4 mg/ml), was administered (7.6 mg/mouse) to mice by i.p. Blood samples were obtained through retro-orbital bleeding with mice under general anesthesia through the use of isoflurane. The blood samples were immediately frozen in liquid nitrogen and stored at −80° C. freezer before LC/MS/MS analysis.
The blood sample was quickly thawed at 37° C. The sample (200 μl) was first mixed with acetonitrile ([…]) and centrifuged at 14000 rpm for 2 min at 4° C. The precipitates were washed with additional acetonitrile (2×200 μl) and centrifuged. […]
LC/MS/MS analysis was completed on a ThermoFinnigan TSQ Quantum Ultra triple quadrupole mass spectrometer coupled with an Agilent Eclipse XDB-C18 column ([…], 5 μm) equipped with an Agilent XDB-C8 guard column. […] Prodrug 2 was detected by monitoring the mass transition of 384→126.

Data set [2] has as its system E6E7/Ras MTE cells. Put plainly: Live cell number, trypan blue exclusion assay. In kind it is cell-based, mouse. As to conditions: 1 mM, 2.5 mM and 5 mM, one day, vs DMSO. Here is the method:
(§1) FIG. 4 illustrates prodrugs AT-N4-001 and AT-N4-002 inhibiting cell proliferation and colony growth of E6E7/Ras MTE cells. (A) E6E7/Ras MTE cultures were treated with DMSO (Con), AT-N4-001, or AT-N4-[…] 002 at the indicated concentration for one day. Live cell number was then determined using a trypan blue exclusion assay. (B) E6E7/Ras MTE cells were seeded on 100-mm plate at 500 cells per plate (in triplicate). After one day, cells were treated as indicated and allowed to grow until colonies of untreated controls reached 50 or more cells (7 days). Plates were stained with Coomassie blue to visualize the colonies. (C) Quantification of colonies described in B. Colonies with more than 15 cells were counted.
E6E7/Ras MTE cells are mouse tonsilar epithelial cells that have been transformed by HPV oncogenes E6 and E7 together with activated ras. They form tumors in mice and are a model of human HPV+HNSCC. These cells were treated in culture with either vehicle control (DMSO), AT-N4-001, or AT-N4-002 at concentrations of 1 mM, 2.5 mM and 5 mM for one day. Live cells were counted using a hemocytometer (FIG. 4A). […] The effects of the compounds on clonogenic growth of the cells were also tested. E6/E7/Ras MTE cells were seeded in 100 mm plates in triplicate, and the next day cells were treated with either vehicle control DMSO, 5 mM AT-N4-001, 5 mM AT-N4-002, or 10 mM DCA. […]

Data set [3] relates to E6E7/Ras MTE cells. The experiment in a line: Clonogenic growth (colony formation). Format: cell-based, mouse. Conditions: 7 days; for number of colonies compared to DCA treated cultures (FIG. 4C): 5 mM prodrug vs 10 mM DCA; for colony size (FIG. 4B): 5 mM prodrugs, 10 mM DCA, vs DMSO. The procedure: as §1
E6E7/Ras MTE cells are mouse tonsilar epithelial cells that have been transformed by HPV oncogenes E6 and E7 together with activated ras. They form tumors in mice and are a model of human HPV+HNSCC. These cells were treated in culture with either vehicle control (DMSO), AT-N4-001, or AT-N4-002 at concentrations of 1 mM, 2.5 mM and 5 mM for one day. Live cells were counted using a hemocytometer (FIG. 4A). […] The effects of the compounds on clonogenic growth of the cells were also tested. E6/E7/Ras MTE cells were seeded in 100 mm plates in triplicate, and the next day cells were treated with either vehicle control DMSO, 5 mM AT-N4-001, 5 mM AT-N4-002, or 10 mM DCA. DCA was used at a twice the concentration because the prodrugs each carry two molecules of DCA.

For data set [4], the system named is E6E7/Ras cells. Put plainly: Lactate secretion into culture medium, enzyme based assay. As to conditions: 5 mM each, 4 hours. In kind it is cell-based, mouse. Here is the method: FIG. 5 illustrates the reduction of lactate secretion in cultured cells by prodrugs AT-N4-001 and AT-N4-002. E6E7Ras cells were plated in 100 mm dishes and grown to confluence. The medium was changed to bicarbonate-free DMEM-10% FBS with or without the indicated treatments (5 mM each). Four hours later the medium was collected and lactate was measured using an enzyme based assay from Eton Bioscience. Con indicates the control samples for the DCA and Oxamate samples. DMSO indicates the vehicle only control for the AT-N4-001 and AT-N4-002 prodrug samples.
AT-N4-001 and AT-N4-002 should each release two molecules of DCA and one molecule of oxamate. Both DCA and oxamate are expected to reduce cellular lactate production. Therefore, we examined the changes in lactate after treatment of E6E7/Ras cells with the prodrugs. E6E7/Ras cells were seeded into 100 mm dishes and the next day treated with 5 mM AT-N4-001, 5 mM AT-N4-002, 5 mM DCA plus 5 mM oxamate, or 5 mM DCA alone. Culture medium was collected after 4 hours of treatment and lactate levels were determined (FIG. 5). […] To confirm the effects of these compounds on lactate production, the extra cellular acidification rate (ECAR) was measured using a Seahorse XF24 Extracellular Flux analyzer. Since lactate is transported from cells together with a proton, acidification of the culture medium (ECAR) is an estimate of lactate production and the glycolytic rate of cells. In the experiment shown in FIG. 6A, ECAR measurements were initiated in the absence of glucose. At point A, glucose was added and ECAR measurements continued. […] At point B, additional glucose along with vehicle (control), DCA plus oxamate, or AT-N4-002 was added. […] This is shown by a bar graph in FIG. 6B.

`NC(=O)C(=O)OC(COC(=O)C(Cl)Cl)COC(=O)C(Cl)Cl` [AT-N4-001, 2-(2-Amino-2-oxoacetoxy)propane-1,3-diyl bis(2,2-dichloroacetate)]: the “release of DCA and oxamate in vivo” value in data set [1] is “quickly released DCA and oxamate”. Further, the “prodrug in blood samples” value in data set [1] (after 25 min) is given as “No prodrug was detected”. Also, the “live cell number (FIG. 4A)” value in data set [2] is on record as “significant reductions in live cell number”. In data set [3], the “number of colonies compared to DCA treated cultures (FIG. 4C)” value is recorded as “significantly lower” and the “colony size (FIG. 4B)” value is recorded as “approximately equal reductions in colony size”. Moreover, the “lactate production (culture medium, FIG. 5)” value in data set [4] is recorded as “significantly reduce lactate production”.

`NC(=O)C(=O)OCC(COC(=O)C(Cl)Cl)OC(=O)C(Cl)Cl` (stereo not drawn) [AT-N4-002, 3-(2-amino-2-oxoacetoxy)propane-1,2-diyl bis(2,2-dichloroacetate)]: in data set [1], the “release of DCA and oxamate in vivo” value was “quickly released DCA and oxamate”. Besides, in data set [1] (after 30 min), the “prodrug in blood samples” value was “No prodrug was detected”. Further, the “live cell number (FIG. 4A)” value in data set [2] was “significant reductions in live cell number”. In addition, in data set [3], the “number of colonies compared to DCA treated cultures (FIG. 4C)” value was “significantly lower” and the “colony size (FIG. 4B)” value is reported as “approximately equal reductions in colony size”. The “lactate production (culture medium, FIG. 5)” value in data set [4] is listed as “significantly reduce lactate production”.
